In ChEMBL document CHEMBL1201862, “PubChem BioAssay data set” (2004):
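All cell lines were grown in 96-well plates and treated with compound for 48 hours. Abbreviation: GI50, concentration required for 50% inhibition of growth.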 Active and inactive are the calls of the source. No stated cut-off is given here; in the data, active = GI50 up to about 1.1 µM and inactive = higher.

Tests used:
Experiment in all cases: DTP human tumour cell line panel, 48 h
[1] = test system: OVCAR-4
[2] = test system: OVCAR-3
[3] = test system: EKVX
[4] = test system: SNB-75
[5] = test system: Malme-3M
[6] = test system: CCRF-CEM
[7] = test system: HCT-116
[8] = test system: NCI-H226
[9] = test system: SNB-19
[10] = test system: HT-29
[11] = test system: IGROV-1
[12] = test system: NCI-H23
[13] = test system: NCI-H522
[14] = test system: 786-0
[15] = test system: ACHN
[16] = test system: UACC-257
[17] = test system: CAKI-1
[18] = test system: M14
[19] = test system: SF-539

Measured: GI50

COC(=O)[C@H](Cc1ccccc1)NC(=O)N1CCN(C(=O)N[C@@H](Cc2ccccc2)C(=O)OC)CCN(C(=O)N[C@@H](Cc2ccccc2)C(=O)OC)CC1
inactive: [1] > 100 µM | [2] > 100 µM | [3] > 100 µM | [4] > 100 µM | [5] > 100 µM | [6] > 100 µM | [7] > 100 µM | [8] > 100 µM | [9] > 100 µM | [10] > 100 µM | [11] > 100 µM | [12] > 100 µM | [13] > 100 µM | [14] > 100 µM | [15] > 100 µM | [16] > 100 µM | [17] > 100 µM | [18] > 100 µM

O=[N+]([O-])c1cc2c(c3nonc13)OCCCCO2
inactive: [1] 14.2 µM | [2] 2.19 µM | [19] 2.82 µM | [3] 18.2 µM | [4] 10.6 µM | [5] 3.66 µM | [6] 1.5 µM | [7] 1.75 µM | [8] 14.4 µM | [9] 13.4 µM | [10] 3.88 µM | [11] 9.16 µM | [12] 10.2 µM | [13] 4.39 µM | [14] 2.02 µM | [15] 6.22 µM | [16] 15.5 µM | [17] 14.3 µM | [18] 5 µM

CC(=O)CC(O)(C(F)(F)Cl)C(F)(Cl)Cl (stereo not given)
inactive: [1] > 10 µM | [2] > 10 µM | [19] > 10 µM | [3] > 10 µM | [4] > 10 µM | [5] > 10 µM | [6] > 10 µM | [7] > 10 µM | [8] > 10 µM | [9] > 10 µM | [10] > 10 µM | [11] > 10 µM | [12] > 10 µM | [13] > 10 µM | [14] > 10 µM | [15] > 10 µM | [16] > 10 µM | [17] > 10 µM | [18] > 10 µM

CC(C)N1CC2CC(CN(C(=O)c3ccccc3)C2)C1.[O-][Cl+3]([O-])([O-])O
inactive: [1] > 100 µM | [2] > 100 µM | [19] > 100 µM | [3] > 100 µM | [4] > 100 µM | [5] > 100 µM | [6] > 100 µM | [8] 72.9 µM | [9] > 100 µM | [10] > 100 µM | [11] > 100 µM | [12] > 100 µM | [13] > 100 µM | [14] > 100 µM | [15] > 100 µM | [16] > 100 µM | [17] > 100 µM | [18] > 100 µM

CC1=C(C(=O)Nc2cc(F)c(F)cc2F)C(c2ccc3c(c2)OCO3)C(C(=O)Nc2cc(F)c(F)cc2F)=C(C)N1
inactive: [1] 19.6 µM | [2] 15.7 µM | [19] 27.5 µM | [3] 18 µM | [4] 13.1 µM | [5] 23.3 µM | [6] 19.5 µM | [8] 23.9 µM | [9] 38.4 µM | [10] 27.4 µM | [11] 28.7 µM | [12] 19.8 µM | [13] 14.9 µM | [14] 18.3 µM | [15] 19.1 µM | [16] 25.9 µM | [17] 11.8 µM | [18] 24.2 µM

Cc1cc(S(=O)(=O)O)ccc1/N=N/c1ccc(/N=N/c2c(O)ccc3ccccc23)c(C)c1
inactive: [1] 51.2 µM | [2] 39.4 µM | [3] 82 µM | [4] 41.6 µM | [5] > 100 µM | [6] 18.1 µM | [7] 34.2 µM | [8] 85.3 µM | [9] > 100 µM | [10] 70.3 µM | [11] 54.7 µM | [12] 33.2 µM | [13] 26 µM | [14] 21.3 µM | [15] 92.9 µM | [16] > 100 µM | [17] 53.2 µM | [18] > 100 µM

O=C(CCC(=O)Nc1cccc(C(F)(F)F)c1)CC(=O)c1ccc2ccccc2c1
inactive: [1] > 100 µM | [2] > 100 µM | [19] > 100 µM | [3] > 100 µM | [5] > 100 µM | [6] > 100 µM | [7] > 100 µM | [8] > 100 µM | [9] > 100 µM | [10] > 100 µM | [11] > 100 µM | [12] > 100 µM | [13] > 100 µM | [14] > 100 µM | [15] > 100 µM | [16] > 100 µM | [17] > 100 µM | [18] > 100 µM

CN1CCCCC1CCN1CCCCC1 (stereo not given)
inactive: [1] > 100 µM | [2] > 100 µM | [3] > 100 µM | [4] > 100 µM | [5] > 100 µM | [7] > 100 µM | [8] > 100 µM | [9] > 100 µM | [10] > 100 µM | [11] > 100 µM | [12] > 100 µM | [13] > 100 µM | [14] > 100 µM | [15] > 100 µM | [16] > 100 µM | [17] > 100 µM | [18] > 100 µM
